Tested on: not listed separately
Test: log P by HPLC on reversed-phase columns (EEC directive 79/831 Annex V.A8)
Format: physicochemical
Settings: acidic range pH 2.7, 0.1% aqueous formic acid/acetonitrile
Method: The log P values were measured according to EEC directive 79/831 Annex V.A8 by HPLC (High Performance Liquid Chromatography) on reversed-phase columns (C 18), using the method below:
The determination was carried out in the acidic range at pH 2.7 using the mobile phases 0.1% aqueous formic acid and acetonitrile; linear gradient from 10% acetonitrile to 95% acetonitrile.

Row | Structure (SMILES) | log P
1 | Cc1cc(C)c(C=C2C(=O)ON=C2c2ccccc2C(F)(F)F)c(C)c1 [Compound I-1] | 4.34
2 | Cc1cc(C)c(C=C2C(=O)ON=C2c2ccccc2OC(F)(F)F)c(C)c1 [Compound I-2] | 4.59
3 | Cc1cc(C)c(C=C2C(=O)ON=C2c2ccccc2[N+](=O)[O-])c(C)c1 [Compound I-3] | 3.76
4 | Cc1cccc(C)c1C=C1C(=O)ON=C1c1ccccc1[N+](=O)[O-] [Compound I-4] | 3.40
5 | Cc1cc(C)c(C=C2C(=O)ON=C2c2cccc(C)c2C)c(C)c1 [Compound I-8] | 4.68
6 | Cc1ccccc1C1=NOC(=O)C1=Cc1c(C)cccc1C [Compound I-9] | 3.95
7 | Cc1cccc(C2=NOC(=O)C2=Cc2c(C)cccc2C)c1C [Compound I-12] | 4.26
8 | Cc1cc(C)c(C=C2C(=O)ON=C2c2ccccc2)c(C)c1 [Compound I-13] | 4.01
9 | COc1cccc(OC)c1C1=NOC(=O)C1=Cc1c(C)cc(C)cc1C [Compound I-15] | 3.95
10 | COc1cccc(C2=NOC(=O)C2=Cc2c(C)cc(C)cc2C)c1OC [Compound I-16] | 4.08
11 | COc1ccc(F)cc1C1=NOC(=O)C1=Cc1c(C)cc(C)cc1C [Compound I-17] | 4.12
12 | COc1cccc(C2=NOC(=O)C2=Cc2c(C)cccc2C)c1OC [Compound I-20] | 3.73
13 | COc1ccc(F)cc1C1=NOC(=O)C1=Cc1c(C)cccc1C [Compound I-21] | 3.75
14 | Cc1cc(C)c(C=C2C(=O)ON=C2c2ccccc2I)c(C)c1 [Compound I-22] | 4.51
15 | Cc1cc(C)c(C=C2C(=O)ON=C2c2ccccc2F)c(C)c1 [Compound I-23] | 4.07
16 | CCOc1ccccc1C1=NOC(=O)C1=Cc1c(C)cc(C)cc1C [Compound I-26] | 4.42
17 | CCOc1ccccc1C1=NOC(=O)C1=Cc1c(C)cccc1C [Compound I-27] | 4.00
18 | Cc1cc(C)c(C=C2C(=O)ON=C2c2ccccc2Cl)c(C)c1 [Compound I-28] | 4.38
19 | Cc1cccc(C)c1C=C1C(=O)ON=C1c1ccccc1Cl [Compound I-29] | 3.97
20 | Cc1cc(C)c(C=C2C(=O)ON=C2c2ccccc2OCc2ccccc2)c(C)c1 [Compound I-30] | 4.86

Row | Structure (SMILES) | log P
21 | Cc1cccc(C)c1C=C1C(=O)ON=C1c1ccccc1OCc1ccccc1 [Compound I-31] | 4.51
22 | Cc1cc(C)c(C=C2C(=O)ON=C2c2ccccc2SC(F)F)c(C)c1 [Compound I-32] | 4.27
23 | Cc1cc(C)c(C=C2C(=O)ON=C2c2cccc(Cl)c2Cl)c(C)c1 [Compound I-33] | 4.80
24 | Cc1cccc(C)c1C=C1C(=O)ON=C1c1cccc(Cl)c1Cl [Compound I-34] | 4.31
25 | Cc1cc(C)c(C=C2C(=O)ON=C2c2ccc(Cl)cc2Cl)c(C)c1 [Compound I-35] | 4.94
26 | Cc1cc(C)c(C=C2C(=O)ON=C2c2cc(F)ccc2F)c(C)c1 [Compound I-36] | 4.12
27 | Cc1cccc(C)c1C=C1C(=O)ON=C1c1cc(F)ccc1F [Compound I-37] | 3.77
28 | Cc1cc(C)c(C=C2C(=O)ON=C2c2cc(F)ccc2Cl)c(C)c1 [Compound I-38] | 4.42
29 | Cc1cccc(C)c1C=C1C(=O)ON=C1c1cc(F)ccc1Cl [Compound I-39] | 3.96
30 | Cc1cc(C)c(C=C2C(=O)ON=C2c2cc(Cl)ccc2Cl)c(C)c1 [Compound I-40] | 4.71
31 | Cc1cc(C)c(C=C2C(=O)ON=C2c2cc(Br)ccc2Cl)c(C)c1 [Compound I-41] | 4.83
32 | Cc1cccc(C)c1C=C1C(=O)ON=C1c1cc(Br)ccc1Cl [Compound I-42] | 4.46
33 | Cc1cc(C)c(C=C2C(=O)ON=C2c2cc(Br)ccc2Br)c(C)c1 [Compound I-43] | 5.05
34 | Cc1cccc(C)c1C=C1C(=O)ON=C1c1cc(Br)ccc1Br [Compound I-44] | 4.57
35 | Cc1cc(C)c(C=C2C(=O)ON=C2c2cccc(C(F)(F)F)c2)c(C)c1 [Compound I-45] | 4.62
36 | Cc1cc(C)c(C=C2C(=O)ON=C2c2cccc([N+](=O)[O-])c2)c(C)c1 [Compound I-46] | 3.85
37 | Cc1cccc(C2=NOC(=O)C2=Cc2c(C)cc(C)cc2C)c1 [Compound I-47] | 4.45
38 | Cc1cc(C)cc(C2=NOC(=O)C2=Cc2c(C)cc(C)cc2C)c1 [Compound I-48] | 4.88
39 | Cc1cc(C)c(C=C2C(=O)ON=C2c2ccc(C)c(C)c2)c(C)c1 [Compound I-49] | 4.81
40 | Cc1ccc(C2=NOC(=O)C2=Cc2c(C)cccc2C)cc1C [Compound I-50] | 4.41

Row | Structure (SMILES) | log P
41 | Cc1cc(C)cc(C2=NOC(=O)C2=Cc2c(C)cccc2C)c1 [Compound I-51] | 4.49
42 | Cc1cccc(C)c1C=C1C(=O)ON=C1c1ccccc1 [Compound I-52] | 3.68
43 | COc1cc(OC)cc(C2=NOC(=O)C2=Cc2c(C)cc(C)cc2C)c1 [Compound I-53] | 4.21
44 | COc1ccc(C2=NOC(=O)C2=Cc2c(C)cc(C)cc2C)cc1OC [Compound I-54] | 4.09
45 | Cc1cc(C)c(C=C2C(=O)ON=C2c2cccc(F)c2)c(C)c1 [Compound I-55] | 4.15
46 | Cc1cc(C)c(C=C2C(=O)ON=C2c2cccc(Cl)c2)c(C)c1 [Compound I-56] | 4.48
47 | Cc1cc(C)c(C=C2C(=O)ON=C2c2ccc(Cl)c(Cl)c2)c(C)c1 [Compound I-57] | 4.95
48 | Cc1cc(C)c(C=C2C(=O)ON=C2c2cc(Cl)cc(Cl)c2)c(C)c1 [Compound I-58] | 5.01
49 | Cc1cc(C)c(C=C2C(=O)ON=C2c2ccc(C(F)(F)F)cc2)c(C)c1 [Compound I-59] | 4.62
50 | Cc1cc(C)c(C=C2C(=O)ON=C2c2ccc(OC(F)(F)F)cc2)c(C)c1 [Compound I-60] | 4.73
51 | Cc1cc(C)c(C=C2C(=O)ON=C2c2ccc(C(C)(C)C)cc2)c(C)c1 [Compound I-61] | 5.43
52 | Cc1cc(C)c(C=C2C(=O)ON=C2c2ccc(OC(C)C)cc2)c(C)c1 [Compound I-62] | 4.70
53 | Cc1cc(C)c(C=C2C(=O)ON=C2c2ccc(-c3ccccc3)cc2)c(C)c1 [Compound I-63] | 5.16
54 | Cc1cc(C)c(C=C2C(=O)ON=C2c2ccc(OCc3ccccc3)cc2)c(C)c1 [Compound I-64] | 5.01
55 | Cc1cc(C)c(C=C2C(=O)ON=C2c2ccc([N+](=O)[O-])cc2)c(C)c1 [Compound I-65] | 3.99
56 | Cc1ccc(C2=NOC(=O)C2=Cc2c(C)cc(C)cc2C)cc1 [Compound I-66] | 4.44
57 | COc1ccc(C2=NOC(=O)C2=Cc2c(C)cc(C)cc2C)cc1 [Compound I-67] | 4.00
58 | CCOc1ccc(C2=NOC(=O)C2=Cc2c(C)cc(C)cc2C)cc1 [Compound I-69] | 4.46

Same assay, conditions: reversed-phase HPLC column (C18), preparation examples, acidic range pH 2.7, formic acid, read-out: log P (HCOOH)

Row | Structure (SMILES) | chromatographic logP
59 | COc1ccccc1C1=NOC(=O)C1 [3-(2-methoxyphenyl)isoxazol-5(4H)-one] | 1.67
60 | O=C1CC(c2cccc(C(F)(F)F)c2)=NO1 [3-(3-trifluoromethylphenyl)isoxazol-5(4H)-one] | 2.4
61 | O=C1CC(c2ccc(F)cc2)=NO1 [3-(4-fluorophenyl)isoxazol-5(4H)-one] | 1.74
62 | Cc1cc(C)c(/C=C2\C(=O)ON=C2c2cccc(C(F)(F)F)c2)c(C)c1 [Compound 1-59, 4-(2,4,6-trimethylbenzylidene)-3-(3-trifluoromethylphenyl)-1,2-oxazol-5(4H)-one] | 4.62
63 | COc1ccccc1C1=NOC(=O)/C1=C\c1c(C)cccc1C [Compound I-18, 4-(2,6-dimethylbenzylidene)-3-(2-methoxyphenyl)-1,2-oxazol-5(4H)-one] | 3.69
64 | Cc1cc(C)c(/C=C2\C(=O)ON=C2c2ccc(F)cc2)c(C)c1 [Compound I-68, 4-(2,4,6-trimethylbenzylidene)-3-(4-fluorophenyl)-1,2-oxazol-5(4H)-one] | 4.08
65 | COC(=O)CC(=O)c1cccc(C(F)(F)F)c1 [methyl 3-trifluoromethylbenzoylacetate] | 2.57

Tested on: Sphaerotheca fuliginea
Test: Sphaerotheca test (cucumber)/protective
Format: in vivo
Settings: protective, 500 ppm, evaluation 7 days after inoculation
Method: Sphaerotheca Test (Cucumber)/Protective [table] To produce an appropriate active compound formulation, 1 part by weight of active compound is mixed with the specified amounts of solvent and emulsifier, and the concentrate is diluted with water to the desired concentration. To test for protective activity, young cucumber plants are sprayed with the preparation of active compound at the stated application rate. 1 day after the treatment, the plants are inoculated with a spore suspension of Sphaerotheca fuliginea. The plants are then placed in a greenhouse at 70% relative atmospheric humidity and a temperature of 23° C.

Row | Structure (SMILES) | efficacy [%]
66 | O=C1ON=C(c2ccccc2)C1=Cc1ccccc1 [Compound A-1] | 30

Tested on: Alternaria solani
Test: Alternaria test (tomato)/protective
Format: in vivo
Settings: protective, 500 ppm, evaluation 7 days after inoculation
Method: Alternaria Test (Tomato)/Protective [table] To produce an appropriate active compound formulation, 1 part by weight of active compound is mixed with the specified amounts of solvent and emulsifier, and the concentrate is diluted with water to the desired concentration. To test for protective activity, young tomato plants are sprayed with the preparation of active compound at the stated application rate. 1 day after the treatment, the plants are inoculated with a spore suspension of Alternaria solani and then remain at 100% relative humidity and 20° C. for 24 h. The plants then remain at 96% relative atmospheric humidity and a temperature of 20° C.

Row | Structure (SMILES) | efficacy [%]
67 | O=C1ON=C(c2ccccc2)C1=Cc1ccccc1 [Compound A-1] | 0

Tested on: Blumeria graminis f.sp. tritici
Test: Blumeria test (wheat)/protective
Format: in vivo
Settings: protective, 1000 ppm, evaluation 7 days after inoculation
Method: Blumeria Test (Wheat)/Protective [table] To produce an appropriate active compound formulation, I part by weight of active compound is mixed with the specified amounts of solvent and emulsifier, and the concentrate is diluted with water to the desired concentration. To test for protective activity, young plants are sprayed with the preparation of active compound at the stated application rate. After the spray coating has dried on, the plants are dusted with spores of Blumeria graminis f.sp. tritici.

Row | Structure (SMILES) | efficacy [%]
68 | O=C1ON=C(c2ccccc2)C1=Cc1ccccc1 [Compound A-1] | 29

Reference: patent US20120065063A1, “3-Aryl-4-(2,6-dimethylbenzylidene)isoxazol-5(4H)-ones as Fungicides” (Bayer CropScience AG, priority 2010, published 2012)
